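Where inhibition never reached the appropriate level, the endpoint shown equals the highest concentration tested. Otherwise, values were interpolated linearly from a five-concentration, 48-hour dose response in 96-well plates. Here, GI50 denotes the concentration required for 50% inhibition of growth. TGI is the concentration that stops growth completely.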
Columns and labels:
Test in all cases: growth of human tumour cells (NCI), 48 h
[1] = test system: UO-31 renal
[2] = test system: M14 melanoma
[3] = test system: HT29 colon
[4] = test system: SK-MEL-28 melanoma
[5] = test system: UACC-257 melanoma
[6] = test system: MOLT-4 leukemia
[7] = test system: OVCAR-3 ovarian
[8] = test system: CCRF-CEM leukemia
[9] = test system: MDA-MB-435
[10] = test system: SW-620 colon
[11] = test system: OVCAR-5 ovarian
[12] = test system: HOP-62 NSCLC
[13] = test system: IGROV1 ovarian
[14] = test system: A498 renal
[15] = test system: MDA-MB-231 breast
[16] = test system: ACHN renal
[17] = test system: NCI/ADR-RES ovarian
[18] = test system: NCI-H23 lung
[19] = test system: SF-295 CNS
[20] = test system: SK-OV-3 ovarian
[21] = test system: SK-MEL-5 melanoma
[22] = test system: EKVX NSCLC
[23] = test system: SNB-19 CNS
[24] = test system: OVCAR-4 ovarian
[25] = test system: K-562 leukemia
[26] = test system: COLO 205 colon
[27] = test system: NCI-H460 lung
[28] = test system: UACC-62 melanoma
[29] = test system: SF-539 CNS
[30] = test system: KM12 colon
[31] = test system: 786-0 renal
[32] = test system: T-47D breast
[33] = test system: OVCAR-8 ovarian
[34] = test system: LOX IMVI melanoma
[35] = test system: HS 578T breast
[36] = test system: SN12C renal
[37] = test system: HOP-92 NSCLC
[38] = test system: TK-10 renal
[39] = test system: HCT-15 colon
[40] = test system: BT-549 breast
[41] = test system: SK-MEL-2 melanoma
[42] = test system: MCF7 breast
[43] = test system: SF-268 CNS
[44] = test system: PC-3 prostate
[45] = test system: HCC-2998 colon
[46] = test system: HCT-116 colon
[47] = test system: CAKI-1 renal
[48] = test system: RXF 393 renal
[49] = test system: A549 NSCLC
[50] = test system: U251 CNS
[51] = test system: DU-145 prostate
[52] = test system: HL-60(TB) leukemia
[53] = test system: SR leukemia
[54] = test system: SNB-75 CNS
[55] = test system: NCI-H226 lung
[56] = test system: NCI-H522 lung

For `Cn1c(=O)c2[nH]c(N/N=N/c3nncs3)nc2n(C)c1=O`, the TGI [1] was > 100 µM, the TGI [2] was > 100 µM and the TGI [3] was > 100 µM. The TGI [4] was > 100 µM, the TGI [5] was > 100 µM and the TGI [6] was > 100 µM. The TGI [7] was > 100 µM, the TGI [8] was > 100 µM and the TGI [9] was > 100 µM. For the same molecule, the TGI [10] was > 100 µM, the TGI [11] was > 100 µM and the TGI [12] was > 100 µM. For the same molecule, the TGI [13] was > 100 µM, the TGI [14] was > 100 µM and the TGI [15] was > 100 µM. For the same molecule, the TGI [16] was > 100 µM, the TGI [17] was > 100 µM and the TGI [18] was > 100 µM. For the same molecule, the TGI [19] was > 100 µM, the TGI [20] was > 100 µM and the TGI [21] was > 100 µM. The TGI [22] was > 100 µM, the TGI [23] was > 100 µM and the TGI [24] was > 100 µM. For the same molecule, the TGI [25] was > 100 µM, the TGI [26] was > 100 µM and the TGI [27] was > 100 µM. For the same molecule, the TGI [28] was > 100 µM, the TGI [29] was > 100 µM and the TGI [30] was > 100 µM. For the same molecule, the TGI [31] was > 100 µM, the TGI [32] was > 100 µM and the TGI [33] was > 100 µM. For the same molecule, the TGI [34] was > 100 µM, the TGI [35] was > 100 µM and the TGI [36] was > 100 µM. The TGI [37] was > 100 µM, the TGI [38] was > 100 µM and the TGI [39] was > 100 µM. For the same molecule, the TGI [40] was > 100 µM, the TGI [41] was > 100 µM and the TGI [42] was > 100 µM. The TGI [43] was > 100 µM, the TGI [44] was > 100 µM and the TGI [45] was > 100 µM. The TGI [46] was > 100 µM, the TGI [47] was > 100 µM and the TGI [48] was > 100 µM. For the same molecule, the TGI [49] was > 100 µM, the TGI [50] was > 100 µM and the TGI [51] was > 100 µM.
In the case of `COc1cccc(-c2nc3cc(NC(=O)c4ccc(Cl)c(C#N)c4)ccc3o2)c1`, the GI50 [1] was 3.95 µM, the TGI [1] was > 100 µM and the GI50 [5] was 3.81 µM. The TGI [5] was > 100 µM, the GI50 [6] was > 100 µM and the TGI [6] was > 100 µM. The GI50 [52] was > 100 µM, the TGI [52] was > 100 µM and the GI50 [8] was > 100 µM. The TGI [8] was > 100 µM, the GI50 [9] was 1.37 µM and the TGI [9] was 2.85 µM. For the same molecule, the GI50 [10] was 4.11 µM, the TGI [10] was > 100 µM and the GI50 [11] was 3.05 µM. The TGI [11] was > 100 µM, the GI50 [12] was 12.9 µM and the TGI [12] was > 100 µM. The GI50 [13] was 7.55 µM, the TGI [13] was > 100 µM and the GI50 [53] was 35.1 µM. The TGI [53] was > 100 µM, the GI50 [15] was 3.28 µM and the TGI [15] was > 100 µM. The GI50 [17] was 1.42 µM, the TGI [17] was 4.31 µM and the GI50 [18] was 1.69 µM. For the same molecule, the TGI [18] was 4.15 µM, the GI50 [19] was 11.7 µM and the TGI [19] was > 100 µM. The GI50 [20] was 2.57 µM, the TGI [20] was 5.56 µM and the GI50 [21] was 1.79 µM. For the same molecule, the TGI [21] was 4.2 µM, the GI50 [23] was 3.18 µM and the TGI [23] was > 100 µM. For the same molecule, the GI50 [24] was 1.8 µM, the TGI [24] was 3.43 µM and the GI50 [25] was 2.69 µM. For the same molecule, the TGI [25] was > 100 µM, the GI50 [54] was 2.48 µM and the TGI [54] was 7.15 µM. For the same molecule, the GI50 [26] was 5.77 µM, the TGI [26] was > 100 µM and the GI50 [27] was 2.12 µM. The TGI [27] was 4.91 µM, the GI50 [28] was 3.29 µM and the TGI [28] was > 100 µM. The GI50 [29] was 1.68 µM, the TGI [29] was 3.37 µM and the GI50 [30] was 1.95 µM. For the same molecule, the TGI [30] was 4.48 µM, the GI50 [31] was 1.74 µM and the TGI [31] was 3.33 µM. The GI50 [32] was 3.75 µM, the TGI [32] was > 100 µM and the GI50 [34] was 3.7 µM. The TGI [34] was > 100 µM, the GI50 [35] was 8.89 µM and the TGI [35] was > 100 µM. The GI50 [36] was 3.1 µM, the TGI [36] was > 100 µM and the GI50 [55] was 6.49 µM. The TGI [55] was > 100 µM, the GI50 [37] was 3.01 µM and the TGI [37] was 8.56 µM. The GI50 [38] was 3.39 µM, the TGI [38] was 9 µM and the GI50 [39] was > 100 µM. The TGI [39] was > 100 µM, the GI50 [41] was 9.21 µM and the TGI [41] was 74.2 µM. The GI50 [44] was 2.96 µM, the TGI [44] was > 100 µM and the GI50 [56] was 1.68 µM. It also gave a TGI [56] of 4.54 µM, a GI50 [46] of 1.8 µM and a TGI [46] of 3.47 µM. The GI50 [47] was 23.3 µM, the TGI [47] was > 100 µM and the GI50 [48] was 3.12 µM. It also gave a TGI [48] of 9.45 µM, a GI50 [49] of 1.88 µM and a TGI [49] of 3.8 µM. For the same molecule, the GI50 [51] was 2.36 µM and the TGI [51] was > 100 µM.

From PubChem BioAssay (NCI)
